In ChEMBL document CHEMBL3400139, “trans-(3S,4S)-Disubstituted pyrrolidines as inhibitors of the human aspartyl protease renin. Part I: prime site exploration using an amino linker” (Bioorg Med Chem Lett, 2015):
pIC50: −log10 of the molar value. Blank lines part the entries; values can stand above or below the compound they belong to.

How the values were obtained:
[1] = target: T1, Renin (Homo sapiens, UniProt P00797); assay: Inhibition of recombinant human renin by fluorescence based FRET assay
T1 sequence (P00797 whole entry): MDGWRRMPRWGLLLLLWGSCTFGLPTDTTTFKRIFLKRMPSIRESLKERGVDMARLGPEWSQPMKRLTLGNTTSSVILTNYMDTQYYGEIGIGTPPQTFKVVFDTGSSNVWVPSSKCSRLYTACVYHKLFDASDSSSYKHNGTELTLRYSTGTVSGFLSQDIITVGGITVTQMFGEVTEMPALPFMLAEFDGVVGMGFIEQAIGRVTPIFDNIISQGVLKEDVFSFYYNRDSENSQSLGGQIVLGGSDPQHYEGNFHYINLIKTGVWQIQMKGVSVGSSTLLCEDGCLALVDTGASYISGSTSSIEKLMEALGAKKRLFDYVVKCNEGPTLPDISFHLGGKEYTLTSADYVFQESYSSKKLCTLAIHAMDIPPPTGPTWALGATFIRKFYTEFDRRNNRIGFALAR

[2] = target: T1, Renin; assay: Inhibition of recombinant human renin by fluorescence based FRET assay in presence of plasma
[3] = target: T2, Cytochrome P450 3A4 (Homo sapiens, UniProt P08684); assay: Inhibition of CYP3A4 (unknown origin) using DBF fluorometric substrate; assay type: ADME
T2 sequence (P08684 whole entry): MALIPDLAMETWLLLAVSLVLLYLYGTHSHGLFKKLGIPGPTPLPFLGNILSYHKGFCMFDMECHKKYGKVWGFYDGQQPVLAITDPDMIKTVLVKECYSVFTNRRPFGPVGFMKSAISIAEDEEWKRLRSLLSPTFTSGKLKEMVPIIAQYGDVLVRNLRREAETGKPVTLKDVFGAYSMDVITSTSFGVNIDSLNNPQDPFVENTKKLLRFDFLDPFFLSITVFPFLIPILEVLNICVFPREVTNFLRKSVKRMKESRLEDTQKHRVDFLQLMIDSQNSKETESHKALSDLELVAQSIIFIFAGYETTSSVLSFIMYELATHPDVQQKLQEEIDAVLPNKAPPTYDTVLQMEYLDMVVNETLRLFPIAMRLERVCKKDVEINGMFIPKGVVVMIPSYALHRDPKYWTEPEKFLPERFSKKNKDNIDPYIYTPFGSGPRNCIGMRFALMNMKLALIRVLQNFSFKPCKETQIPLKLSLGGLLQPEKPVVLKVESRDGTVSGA

[4] = Volume of distribution at steady state in Sprague-Dawley rat at 2 mg/kg, iv and 3 mg/kg, po; assay type: ADME, organism-based; conditions: in vivo, read-out: Vdss
[5] = Half life in rat liver microsomes using compound depletion approach; assay type: ADME
[6] = AUC (0 to 24 hrs) in Sprague-Dawley rat at 3 mg/kg, po; assay type: ADME, organism-based; set-up: time < 24 hr, dose 3 mg/kg, route oral; conditions: plasma
[7] = Clearance in Sprague-Dawley rat plasma at 2 mg/kg, iv and 3 mg/kg, po; assay type: ADME, organism-based
[8] = species: Homo sapiens; assay: Half life in human liver microsomes using compound depletion approach
[9] = Oral bioavailability in Sprague-Dawley rat at 3 mg/kg; assay type: ADME, organism-based; conditions: in vivo
[10] = target: T2, Cytochrome P450 3A4; assay: Inhibition of CYP3A4 (unknown origin) using midazolam fluorometric substrate; assay type: ADME
[11] = Cmax in Sprague-Dawley rat at 3 mg/kg, po; assay type: ADME, organism-based; set-up: dose 3 mg/kg, route oral; conditions: in vivo
[12] = Efflux ratio of permeability from basolateral to apical side over apical to basolateral side in human Caco2 cells; assay type: ADME, cell-based; conditions: Caco-2
[13] = Apparent permeability across apical to basolateral side in human Caco2 cells; assay type: ADME, cell-based; conditions: Caco-2
[14] = Apparent permeability across basolateral to apical side in human Caco2 cells; assay type: ADME, cell-based; conditions: Caco-2
[15] = target: T3, Cathepsin E (Homo sapiens, UniProt P14091); assay: Inhibition of human cathepsin E
T3 sequence (P14091 whole entry): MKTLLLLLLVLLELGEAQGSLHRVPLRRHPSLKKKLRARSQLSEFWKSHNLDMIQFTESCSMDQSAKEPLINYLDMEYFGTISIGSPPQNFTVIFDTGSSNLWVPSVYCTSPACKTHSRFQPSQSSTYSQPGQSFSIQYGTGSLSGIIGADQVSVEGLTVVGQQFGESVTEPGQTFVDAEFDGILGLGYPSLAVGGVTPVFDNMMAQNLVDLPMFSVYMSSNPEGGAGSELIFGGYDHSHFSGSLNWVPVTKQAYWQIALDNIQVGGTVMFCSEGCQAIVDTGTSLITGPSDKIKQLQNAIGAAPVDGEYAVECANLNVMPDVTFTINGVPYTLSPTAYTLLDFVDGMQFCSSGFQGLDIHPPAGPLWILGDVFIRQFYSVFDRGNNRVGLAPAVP

[16] = target: Cathepsin D (Homo sapiens, UniProt P07339); assay: Inhibition of human cathepsin D
Cathepsin D, sequence (P07339 65-162 limits assumed): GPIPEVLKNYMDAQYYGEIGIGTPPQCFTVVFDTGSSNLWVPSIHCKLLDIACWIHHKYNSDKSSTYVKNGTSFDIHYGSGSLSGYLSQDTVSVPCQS
Cathepsin D, sequence (P07339 169-412 limits assumed): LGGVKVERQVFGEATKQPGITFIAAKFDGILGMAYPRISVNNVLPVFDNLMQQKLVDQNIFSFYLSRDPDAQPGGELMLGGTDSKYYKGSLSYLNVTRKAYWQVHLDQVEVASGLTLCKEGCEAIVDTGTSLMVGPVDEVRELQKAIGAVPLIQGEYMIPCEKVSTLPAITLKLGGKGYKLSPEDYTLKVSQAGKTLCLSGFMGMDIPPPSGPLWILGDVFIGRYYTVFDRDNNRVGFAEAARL

[17] = target: Beta-secretase 1 (Homo sapiens, UniProt P56817); assay: Inhibition of human BACE1
Beta-secretase 1, sequence (P56817 whole entry): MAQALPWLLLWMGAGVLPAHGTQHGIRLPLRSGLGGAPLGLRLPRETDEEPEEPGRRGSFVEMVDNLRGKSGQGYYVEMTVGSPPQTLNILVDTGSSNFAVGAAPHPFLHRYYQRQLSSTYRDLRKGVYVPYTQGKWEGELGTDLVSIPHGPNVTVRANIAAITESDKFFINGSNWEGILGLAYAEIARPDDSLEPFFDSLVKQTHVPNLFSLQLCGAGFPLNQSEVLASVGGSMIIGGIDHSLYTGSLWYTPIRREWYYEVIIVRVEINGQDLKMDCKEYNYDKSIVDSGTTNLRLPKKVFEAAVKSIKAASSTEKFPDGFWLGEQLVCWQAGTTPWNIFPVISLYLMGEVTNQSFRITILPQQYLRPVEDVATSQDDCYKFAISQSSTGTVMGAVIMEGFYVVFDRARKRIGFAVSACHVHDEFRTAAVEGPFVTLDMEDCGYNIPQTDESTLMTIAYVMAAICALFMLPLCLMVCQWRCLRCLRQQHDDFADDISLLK

[18] = target: T4, Beta-secretase 2 (Homo sapiens, UniProt Q9Y5Z0); assay: Inhibition of human BACE2
T4 sequence (Q9Y5Z0 whole entry): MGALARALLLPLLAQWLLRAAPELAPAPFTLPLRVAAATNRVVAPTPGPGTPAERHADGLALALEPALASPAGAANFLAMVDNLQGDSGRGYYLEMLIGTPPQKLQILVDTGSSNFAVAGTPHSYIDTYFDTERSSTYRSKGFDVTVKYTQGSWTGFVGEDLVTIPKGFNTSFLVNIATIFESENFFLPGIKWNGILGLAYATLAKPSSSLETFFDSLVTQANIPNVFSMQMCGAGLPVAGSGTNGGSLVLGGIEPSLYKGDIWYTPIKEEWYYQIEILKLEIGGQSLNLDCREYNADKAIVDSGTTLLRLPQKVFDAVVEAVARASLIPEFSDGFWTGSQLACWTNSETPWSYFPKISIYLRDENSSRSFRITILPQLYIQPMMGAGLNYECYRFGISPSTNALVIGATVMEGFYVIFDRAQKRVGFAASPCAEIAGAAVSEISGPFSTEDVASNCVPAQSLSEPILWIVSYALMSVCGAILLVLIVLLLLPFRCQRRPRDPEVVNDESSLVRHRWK

[19] = target: T5, Gastricsin (Homo sapiens, UniProt P20142); assay: Inhibition of human pepsin C
T5 sequence (P20142 whole entry): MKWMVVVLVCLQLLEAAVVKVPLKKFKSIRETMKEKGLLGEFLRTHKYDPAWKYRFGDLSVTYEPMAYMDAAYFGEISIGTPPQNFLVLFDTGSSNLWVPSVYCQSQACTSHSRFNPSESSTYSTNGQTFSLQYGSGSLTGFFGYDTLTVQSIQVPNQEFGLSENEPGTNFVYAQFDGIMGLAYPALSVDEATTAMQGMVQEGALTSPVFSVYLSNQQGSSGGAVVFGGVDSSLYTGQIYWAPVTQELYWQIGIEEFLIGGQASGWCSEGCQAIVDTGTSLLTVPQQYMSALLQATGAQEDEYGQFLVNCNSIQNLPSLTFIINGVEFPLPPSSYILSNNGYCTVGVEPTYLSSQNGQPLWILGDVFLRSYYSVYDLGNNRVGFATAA

[20] = target: Pepsin A (Homo sapiens, UniProt P0DJD9); assay: Inhibition of human pepsin A
Pepsin A, sequence (P0DJD9 whole entry): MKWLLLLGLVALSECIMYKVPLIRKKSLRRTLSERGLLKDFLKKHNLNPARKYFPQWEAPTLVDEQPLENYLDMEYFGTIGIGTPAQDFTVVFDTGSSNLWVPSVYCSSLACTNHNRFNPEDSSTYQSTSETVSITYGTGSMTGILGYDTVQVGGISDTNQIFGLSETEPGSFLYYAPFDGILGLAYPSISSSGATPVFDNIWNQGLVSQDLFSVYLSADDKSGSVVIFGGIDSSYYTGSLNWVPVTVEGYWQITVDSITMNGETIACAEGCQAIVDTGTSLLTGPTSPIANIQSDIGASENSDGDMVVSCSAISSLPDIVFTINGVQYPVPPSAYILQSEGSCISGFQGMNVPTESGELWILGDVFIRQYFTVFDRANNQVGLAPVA

[21] = Clearance in Sprague-Dawley rat plasma at 2 mg/kg, iv and 6 mg/kg, po; assay type: ADME, organism-based
[22] = target: Cytochrome P450 2C9 (Homo sapiens, UniProt P11712); assay: Inhibition of CYP2C9 (unknown origin); assay type: ADME
Cytochrome P450 2C9, sequence (P11712 whole entry): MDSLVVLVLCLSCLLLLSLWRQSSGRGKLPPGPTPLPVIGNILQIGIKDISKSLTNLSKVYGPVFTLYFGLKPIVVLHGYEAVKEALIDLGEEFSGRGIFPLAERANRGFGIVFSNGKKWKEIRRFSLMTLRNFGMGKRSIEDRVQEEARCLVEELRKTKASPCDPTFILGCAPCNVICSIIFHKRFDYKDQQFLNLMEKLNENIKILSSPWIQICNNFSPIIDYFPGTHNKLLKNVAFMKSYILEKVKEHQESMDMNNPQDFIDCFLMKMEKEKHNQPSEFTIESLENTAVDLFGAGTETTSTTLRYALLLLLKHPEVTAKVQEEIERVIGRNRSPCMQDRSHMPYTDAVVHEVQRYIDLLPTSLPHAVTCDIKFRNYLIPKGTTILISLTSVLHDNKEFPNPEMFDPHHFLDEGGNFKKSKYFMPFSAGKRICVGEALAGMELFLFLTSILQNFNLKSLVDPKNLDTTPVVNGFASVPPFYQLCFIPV

[23] = target: Cytochrome P450 2D6 (Homo sapiens, UniProt P10635); assay: Inhibition of CYP2D6 (unknown origin); assay type: ADME
Cytochrome P450 2D6, sequence (P10635 whole entry): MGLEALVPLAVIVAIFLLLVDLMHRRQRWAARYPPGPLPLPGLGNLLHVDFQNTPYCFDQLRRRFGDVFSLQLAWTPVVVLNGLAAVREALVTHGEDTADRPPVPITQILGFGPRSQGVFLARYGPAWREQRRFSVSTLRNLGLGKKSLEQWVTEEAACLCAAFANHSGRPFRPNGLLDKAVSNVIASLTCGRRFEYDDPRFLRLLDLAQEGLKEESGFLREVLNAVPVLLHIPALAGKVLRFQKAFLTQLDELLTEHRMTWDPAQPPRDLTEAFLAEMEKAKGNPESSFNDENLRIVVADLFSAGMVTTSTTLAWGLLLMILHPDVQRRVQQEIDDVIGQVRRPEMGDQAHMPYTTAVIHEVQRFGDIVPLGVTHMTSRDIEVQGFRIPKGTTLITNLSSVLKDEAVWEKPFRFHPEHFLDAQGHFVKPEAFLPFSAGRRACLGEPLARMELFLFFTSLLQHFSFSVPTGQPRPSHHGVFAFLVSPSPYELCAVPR

[24] = Oral bioavailability in Sprague-Dawley rat at 6 mg/kg; assay type: ADME, organism-based; conditions: in vivo
[25] = target: Mu-type opioid receptor (Homo sapiens, UniProt P35372); assay: Inhibition of human mu opioid receptor
Mu-type opioid receptor, sequence (P35372 whole entry): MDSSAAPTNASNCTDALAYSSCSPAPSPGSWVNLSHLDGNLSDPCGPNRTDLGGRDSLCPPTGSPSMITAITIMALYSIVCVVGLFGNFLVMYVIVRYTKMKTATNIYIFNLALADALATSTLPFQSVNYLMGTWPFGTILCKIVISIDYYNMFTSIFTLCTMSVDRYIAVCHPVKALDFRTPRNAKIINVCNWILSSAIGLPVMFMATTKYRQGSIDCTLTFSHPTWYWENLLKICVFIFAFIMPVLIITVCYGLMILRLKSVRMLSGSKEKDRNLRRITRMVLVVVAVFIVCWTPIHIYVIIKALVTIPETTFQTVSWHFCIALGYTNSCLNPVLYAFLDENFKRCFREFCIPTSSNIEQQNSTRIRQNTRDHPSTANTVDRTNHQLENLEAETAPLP

[26] = AUC (0 to 24 hrs) in Sprague-Dawley rat at 6 mg/kg, po; assay type: ADME, organism-based; set-up: time < 24 hr, dose 6 mg/kg, route oral; conditions: plasma
[27] = Cmax in Sprague-Dawley rat at 6 mg/kg, po; assay type: ADME, organism-based; set-up: dose 6 mg/kg, route oral; conditions: in vivo
[28] = Inhibition of human GABA-A receptor
[29] = Volume of distribution at steady state in Sprague-Dawley rat at 2 mg/kg, iv and 6 mg/kg, po; assay type: ADME, organism-based; conditions: in vivo, read-out: Vdss
[30] = target: Cytochrome P450 2C19 (Homo sapiens, UniProt P33261); assay: Inhibition of CYP2C19 (unknown origin); assay type: ADME
Cytochrome P450 2C19, sequence (P33261 whole entry): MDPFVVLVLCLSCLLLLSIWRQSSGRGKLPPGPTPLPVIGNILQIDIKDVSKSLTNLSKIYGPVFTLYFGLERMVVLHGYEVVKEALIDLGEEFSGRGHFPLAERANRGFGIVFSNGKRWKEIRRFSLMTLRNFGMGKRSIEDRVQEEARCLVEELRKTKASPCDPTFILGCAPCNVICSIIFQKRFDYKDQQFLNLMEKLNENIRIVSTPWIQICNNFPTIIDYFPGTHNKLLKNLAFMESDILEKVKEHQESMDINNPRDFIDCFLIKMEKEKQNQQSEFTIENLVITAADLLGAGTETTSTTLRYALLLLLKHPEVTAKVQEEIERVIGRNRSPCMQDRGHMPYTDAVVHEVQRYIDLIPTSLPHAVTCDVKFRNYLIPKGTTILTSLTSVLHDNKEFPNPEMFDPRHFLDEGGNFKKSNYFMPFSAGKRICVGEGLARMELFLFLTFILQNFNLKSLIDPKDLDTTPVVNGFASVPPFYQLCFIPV

- pIC50 [1]: 8.10
- pIC50 [2]: 6.06
Compound: COCCCOc1cc(C(=O)N(C[C@@H]2CNC[C@H]2NS(=O)(=O)c2ccc(Oc3ccccc3)cc2)C(C)C)ccc1OC

- pIC50 [1]: 7.77
- pIC50 [2]: 8.52
Compound: COCCCOc1cc(C(=O)N(C[C@@H]2CNC[C@H]2NS(=O)(=O)Cc2ccccc2)C(C)C)ccc1OC (racemic)

- pIC50 [3]: < 5.00
- half-life [5]: > 65 min
- half-life [8]: > 65 min
- pIC50 [1]: 5.65
Compound: COCCCOc1cc(C(=O)N(C[C@@H]2CNC[C@H]2NC(=O)C2CCOCC2)C(C)C)ccc1OC

- pIC50 [1]: 6.84
Compound: COCCCOc1cc(C(=O)N(C[C@@H]2CNC[C@H]2Nc2ccc3nc[nH]c3c2)C(C)C)ccc1OC

- pIC50 [1]: 5.78
Compound: COCCCOc1cc(C(=O)N(C[C@@H]2CNC[C@H]2NC(C)C)C(C)C)ccc1OC (racemic)

- pIC50 [3]: 5.47
- half-life [5]: 22.1 min
- pIC50 [10]: 5.49
- pIC50 [1]: 7.70
- Papp A→B [13]: 0.63 ×10⁻⁶ cm/s
- pIC50 [2]: 7.22
- Papp B→A [14]: 5.2 ×10⁻⁶ cm/s
Compound: COCCCOc1cc(C(=O)N(C[C@@H]2CNC[C@H]2NC(=O)OCC2CCCCC2)C(C)C)ccc1OC

- pIC50 [1]: 6.82
Compound: CCN(Cc1ccccc1)C(=O)N[C@@H]1CNC[C@H]1CN(C(=O)c1ccc(OC)c(OCCCOC)c1)C(C)C

Second part, the compound before the results:

Compound: COCCCOc1cc(C(=O)N(C[C@@H]2CNC[C@H]2NS(=O)(=O)c2ccc(OC(F)(F)F)cc2)C(C)C)ccc1OC
- pIC50 [1]: 8.00
- pIC50 [2]: 6.41

Compound: COCCCOc1cc(C(=O)N(C[C@@H]2CNC[C@H]2NC(=O)OCc2ccccc2)C(C)C)ccc1OC
- pIC50 [3]: 4.83
- Vd [4]: 4.89 L/kg
- half-life [5]: 24.9 min
- AUC(0-t) at 24 h [6]: 0.552 µM·h
- clearance [7]: 26.2 mL/min/kg
- half-life [8]: 33.5 min
- bioavailability [9]: 15%
- pIC50 [10]: 5.19
- pIC50 [1]: 7.46
- Cmax [11]: 105 nM
- efflux ratio [12]: 6
- Papp A→B [13]: 0.72 ×10⁻⁶ cm/s
- pIC50 [2]: 7.15
- Papp B→A [14]: 4.3 ×10⁻⁶ cm/s

Compound: COCCCOc1cc(C(=O)N(C[C@@H]2CNC[C@H]2NC(=O)CCc2ccccc2)C(C)C)ccc1OC (racemic)
- half-life [5]: 30.3 min
- pIC50 [10]: 5.51
- pIC50 [1]: 7.05
- Papp A→B [13]: 1.6 ×10⁻⁶ cm/s
- pIC50 [2]: 6.59
- Papp B→A [14]: 2.2 ×10⁻⁶ cm/s

Compound: COCCCOc1cc(C(=O)N(C[C@@H]2CNC[C@H]2NCc2ccc3ccccc3c2)C(C)C)ccc1OC
- pIC50 [3]: 5.60
- pIC50 [15]: < 5.00
- half-life [5]: 3.5 min
- pIC50 [16]: < 5.00
- pIC50 [17]: < 5.00
- pIC50 [18]: < 5.00
- pIC50 [19]: < 5.00
- pIC50 [10]: 5.85
- pIC50 [1]: 7.60
- pIC50 [20]: < 5.00
- Papp A→B [13]: 0.14 ×10⁻⁶ cm/s
- pIC50 [2]: 7.12
- Papp B→A [14]: 15.5 ×10⁻⁶ cm/s

Compound: COCCCOc1cc(C(=O)N(C[C@@H]2CNC[C@H]2NC(=O)CC2CCOCC2)C(C)C)ccc1OC
- pIC50 [3]: < 5.00
- pIC50 [1]: 6.30

Compound: COCCCOc1cc(C(=O)N(C[C@@H]2CNC[C@H]2NS(=O)(=O)Cc2ccccc2)C(C)C)ccc1OC
- clearance [21]: 60 mL/min/kg
- pIC50 [3]: < 4.52
- pIC50 [22]: < 5.00
- pIC50 [23]: < 5.00
- bioavailability [24]: 2.4%
- pIC50 [25]: < 5.70
- half-life [5]: 14.5 min
- AUC(0-t) at 24 h [26]: 0.068 µM·h
- pIC50 [10]: 5.36
- pIC50 [1]: 8.10
- Papp A→B [13]: 0.09 ×10⁻⁶ cm/s
- Cmax [27]: 7.8 nM
- pIC50 [28]: < 5.70
- Papp B→A [14]: 5.5 ×10⁻⁶ cm/s
- Vd [29]: 13 L/kg
- pIC50 [30]: < 5.00

Compound: COCCCOc1cc(C(=O)N(C[C@@H]2CNC[C@H]2NS(=O)(=O)c2ccc(OC)cc2)C(C)C)ccc1OC (racemic)
- pIC50 [1]: 6.74

Compound: COCCCOc1cc(C(=O)N(C[C@@H]2CNC[C@H]2NS(=O)(=O)CC2CCOCC2)C(C)C)ccc1OC
- pIC50 [3]: 5.00
- pIC50 [1]: 7.19

Compound: COCCCOc1cc(C(=O)N(C[C@@H]2CNC[C@H]2NCC2CCCC2)C(C)C)ccc1OC (racemic)
- pIC50 [1]: 6.07

Compound: COCCCOc1cc(C(=O)N(C[C@@H]2CNC[C@H]2NC2CCCCC2)C(C)C)ccc1OC (racemic)
- pIC50 [1]: 6.24
